Results taken from ChEMBL document CHEMBL1158226, “Comparative study of the vasodilatory effects of three quinazoline alkaloids isolated from Evodia rutaecarpa” (J Nat Prod, 1996).
Calls of active or inactive are those of the source. No cut-off for these calls is given here.

Columns and labels:
[1] = system: Aorta; test: Vasodilatory activity in Sprague-Dawley rat endothelium-intact thoracic aortic ring assessed as inhibition of phenylephrine-induced contraction; type: functional, tissue-based
[2] = system: Aorta; test: Vasodilatory activity in Sprague-Dawley rat endothelium-denuded thoracic aortic ring assessed as inhibition of phenylephrine-induced contraction at 0.1 to 100 uM; type: functional
[3] = system: Aorta; test: Vasodilatory activity in endothelium-denuded Sprague-Dawley rat thoracic aortic ring assessed as inhibition of phenylephrine-induced contraction preincubated with L-NAME for 10 mins; type: functional, tissue-based
[4] = Antagonist activity at alpha-adrenoceptor in Sprague-Dawley rat endothelium denuded thoracic aorta assessed as inhibition of phenylephrine-induced contraction; type: functional, tissue-based
[5] = system: Aorta; test: Vasodilatory activity in endothelium-denuded Sprague-Dawley rat thoracic aortic ring assessed as inhibition of phenylephrine-induced contraction preincubated with TEA for 1 hr; type: functional, tissue-based
[6] = system: Aorta; test: Vasodilatory activity in Sprague-Dawley rat endothelium-denuded thoracic aortic ring assessed as inhibition of phenylephrine-induced contraction; type: functional, tissue-based
[7] = system: Aorta; test: Vasodilatory activity in Sprague-Dawley rat endothelium-intact thoracic aortic ring assessed as inhibition of phenylephrine-induced contraction at 0.1 to 100 uM; type: functional
[8] = biological target: T1, Adrenergic receptor alpha-1 (Rattus norvegicus, UniProt P15823+P23944+P43140); test: Displacement of [3H]prazosin from alpha1 adrenoceptor in rat heart membrane; type: cell membranes
T1 sequence (P15823 whole entry): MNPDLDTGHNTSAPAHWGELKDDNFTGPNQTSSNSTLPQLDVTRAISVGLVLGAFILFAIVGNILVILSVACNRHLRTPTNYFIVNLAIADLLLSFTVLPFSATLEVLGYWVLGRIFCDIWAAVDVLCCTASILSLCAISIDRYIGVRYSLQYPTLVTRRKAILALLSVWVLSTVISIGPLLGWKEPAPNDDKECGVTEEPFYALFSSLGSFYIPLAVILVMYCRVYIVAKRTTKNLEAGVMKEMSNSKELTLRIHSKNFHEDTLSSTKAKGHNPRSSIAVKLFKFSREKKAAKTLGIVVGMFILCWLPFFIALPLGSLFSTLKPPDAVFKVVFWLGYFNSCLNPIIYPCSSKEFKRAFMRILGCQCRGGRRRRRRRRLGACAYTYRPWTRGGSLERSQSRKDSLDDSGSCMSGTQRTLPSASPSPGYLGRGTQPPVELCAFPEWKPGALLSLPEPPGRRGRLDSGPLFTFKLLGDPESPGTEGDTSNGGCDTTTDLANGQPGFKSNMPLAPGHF
T1 sequence (P23944 whole entry): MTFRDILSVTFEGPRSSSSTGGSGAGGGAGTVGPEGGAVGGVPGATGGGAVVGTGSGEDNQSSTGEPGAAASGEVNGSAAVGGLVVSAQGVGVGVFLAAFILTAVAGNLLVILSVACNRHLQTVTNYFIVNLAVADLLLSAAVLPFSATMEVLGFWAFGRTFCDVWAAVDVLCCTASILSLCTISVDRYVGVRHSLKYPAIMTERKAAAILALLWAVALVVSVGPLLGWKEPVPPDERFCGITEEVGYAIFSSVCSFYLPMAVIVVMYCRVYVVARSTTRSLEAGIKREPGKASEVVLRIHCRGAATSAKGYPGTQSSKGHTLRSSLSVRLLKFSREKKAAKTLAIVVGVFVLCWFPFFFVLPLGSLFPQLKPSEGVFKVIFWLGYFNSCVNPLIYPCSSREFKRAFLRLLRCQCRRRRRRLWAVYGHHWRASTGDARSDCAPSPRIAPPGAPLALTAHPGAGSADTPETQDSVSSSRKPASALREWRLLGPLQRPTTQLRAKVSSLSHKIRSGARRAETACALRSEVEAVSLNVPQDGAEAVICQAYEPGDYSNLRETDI
T1 sequence (P43140 whole entry): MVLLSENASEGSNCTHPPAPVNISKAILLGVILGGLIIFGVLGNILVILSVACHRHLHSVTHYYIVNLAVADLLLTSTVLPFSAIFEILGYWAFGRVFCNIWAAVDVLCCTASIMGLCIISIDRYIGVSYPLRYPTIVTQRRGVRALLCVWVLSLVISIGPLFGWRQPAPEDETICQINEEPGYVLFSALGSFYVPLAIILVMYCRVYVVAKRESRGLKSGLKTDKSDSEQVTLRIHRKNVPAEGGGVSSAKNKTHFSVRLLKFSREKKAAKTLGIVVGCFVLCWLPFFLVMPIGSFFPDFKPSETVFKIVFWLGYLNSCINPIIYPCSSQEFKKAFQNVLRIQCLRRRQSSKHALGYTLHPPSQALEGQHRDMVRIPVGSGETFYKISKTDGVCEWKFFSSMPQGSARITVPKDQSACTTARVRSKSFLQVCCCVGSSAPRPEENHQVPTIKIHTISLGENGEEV

[9] = Binding affinity to DHP binding site of L-type calcium channel at > 100 uM by radioligand binding assay
[10] = system: Aorta; test: Vasodilatory activity in endothelium-denuded Sprague-Dawley rat thoracic aortic ring assessed as inhibition of phenylephrine-induced contraction in absence of L-NAME; type: functional, tissue-based
[11] = system: Aorta; test: Vasodilatory activity in Sprague-Dawley rat thoracic aortic ring assessed as inhibition of potassium chloride-induced contraction; type: functional, tissue-based
[12] = Antagonist activity at 5-HT receptor in Sprague-Dawley rat endothelium denuded thoracic aorta assessed as inhibition of 5HT-induced contraction; type: functional, tissue-based
[13] = Binding affinity to DHP binding site of L-type calcium channel by radioligand binding assay
[14] = system: Aorta; test: Vasodilatory activity in Sprague-Dawley rat endothelium-intact thoracic aortic ring assessed as inhibition of phenylephrine-induced contraction at 100 uM; type: functional; design: scale not given: the % may be the effect or the level left

Row | EC50 [1] [nM] | EC50 [3] [nM] | EC50 [6] [nM] | Ki [8] [nM] | Activity [9] | EC50 [10] [nM] | Activity [13] | Structure (SMILES) | Emax [2] [%] | pA2 [4] | Activity [5] | Emax [7] [%] | Activity [11] | pA2 [12] | Activity [14] [%]
1 | 1640 | 5830 | 7780 | 2400 | Active | 1600 | – | C[n+]1c2n(c(=O)c3ccccc31)CCc1c-2[nH]c2ccccc12 [DEHYDROEVODIAMINE] | 100 | 6.89 | Active | 100 | – | – | –
2 | 930 | 2920 | 8140 | – | – | – | inactive | CN1c2ccccc2C(=O)N2CCc3c([nH]c4ccccc34)[C@@H]21 [EVODIAMINE] | 49.8 | – | Active | 100 | Active | 6.25 | –
3 | 1050 | – | 1750 | – | – | – | inactive | O=c1c2ccccc2nc2n1CCc1c-2[nH]c2ccccc12 [RUTAECARPINE] | 23 | – | Active | 96 | – | – | 72
